Broadly, the IC50 is the concentration that inhibits the measured activity by half.

The target in assay [1] is T1, BACE1 (Homo sapiens (Human), UniProt P56817). Nature of the assay: In vitro enzymatic BACE1 FRET assay. Type of assay: biochemical. The following applies: read-out: IC50 IP (μM) BACE1 Enzyme.
Target sequence in this assay (P56817 46-501): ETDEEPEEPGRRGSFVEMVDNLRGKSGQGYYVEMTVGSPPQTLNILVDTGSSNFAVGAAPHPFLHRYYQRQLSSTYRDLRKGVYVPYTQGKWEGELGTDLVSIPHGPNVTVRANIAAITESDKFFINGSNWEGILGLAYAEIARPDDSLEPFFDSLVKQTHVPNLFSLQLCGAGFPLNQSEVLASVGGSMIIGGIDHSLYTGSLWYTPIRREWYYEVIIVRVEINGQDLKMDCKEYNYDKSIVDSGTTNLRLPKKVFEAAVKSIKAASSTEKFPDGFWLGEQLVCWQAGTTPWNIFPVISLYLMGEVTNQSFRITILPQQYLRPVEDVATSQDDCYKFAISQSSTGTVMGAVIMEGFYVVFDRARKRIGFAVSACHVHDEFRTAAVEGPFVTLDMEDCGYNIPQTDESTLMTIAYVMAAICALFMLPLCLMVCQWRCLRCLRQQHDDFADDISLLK
Description: (§1) In Vitro Enzymatic BACE1 and BACE2 FRET (Fluorescence Resonance Energy Transfer) Assays (Enzyme Assay Data in Table 1)
For assay [2], the target named is T1, BACE1. Nature of the assay: BACE1 cell assay. Type of assay: cell-based.
Target sequence in this assay (P56817 46-501, species assumed): as the sequence (P56817 46-501) above
A further assay deals with BACE2 (Homo sapiens (Human), UniProt Q9Y5Z0). The experiment in a line: In vitro enzymatic BACE2 FRET assay. Type of assay: biochemical. As to conditions: read-out: IC50 IP (μM) BACE2 Enzyme.
Chain of BACE2 (Q9Y5Z0 63-518): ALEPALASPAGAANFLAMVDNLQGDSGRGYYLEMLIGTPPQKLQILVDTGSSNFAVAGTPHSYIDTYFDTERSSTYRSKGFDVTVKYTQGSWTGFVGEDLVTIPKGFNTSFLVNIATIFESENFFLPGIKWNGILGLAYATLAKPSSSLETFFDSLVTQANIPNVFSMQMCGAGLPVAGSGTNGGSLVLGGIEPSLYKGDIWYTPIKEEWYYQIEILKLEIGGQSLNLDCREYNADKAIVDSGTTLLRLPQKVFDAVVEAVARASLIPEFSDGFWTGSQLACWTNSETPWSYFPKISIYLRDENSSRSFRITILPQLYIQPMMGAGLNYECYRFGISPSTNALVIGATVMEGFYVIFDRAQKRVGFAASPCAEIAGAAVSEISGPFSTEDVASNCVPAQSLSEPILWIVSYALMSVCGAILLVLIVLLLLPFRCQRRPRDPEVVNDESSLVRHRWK
For the next assay, the target named is Cathepsin D (CatD) (Homo sapiens (Human), UniProt P07339). The experiment in a line: CatD assay. Format: biochemical. As to conditions: read-out: IC50 IP (μM) CatD.
Chain of Cathepsin D (CatD) (P07339 65-412, species assumed): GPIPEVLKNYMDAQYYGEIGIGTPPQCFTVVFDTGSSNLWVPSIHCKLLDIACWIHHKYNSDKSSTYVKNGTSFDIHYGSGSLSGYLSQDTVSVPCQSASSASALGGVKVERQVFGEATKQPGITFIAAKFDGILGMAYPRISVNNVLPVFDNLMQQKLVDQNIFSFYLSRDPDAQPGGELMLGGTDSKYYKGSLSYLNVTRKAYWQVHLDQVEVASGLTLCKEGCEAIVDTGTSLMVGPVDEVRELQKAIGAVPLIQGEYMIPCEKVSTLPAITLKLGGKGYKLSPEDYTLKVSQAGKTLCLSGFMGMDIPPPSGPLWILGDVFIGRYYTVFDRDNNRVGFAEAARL
Setting [3] is: read-out: IC50 IP (μM) BACE1 Cell.

Description for BACE2: as §1

As for `CN(C)C(=O)[C@]12C[C@H]1[C@@](C)(c1cc(/C=C(\F)c3cnc(C#N)nc3)ccc1F)N=C(N)S2` [Example 173, (1S,5S,6S)-3-amino-5-(5-((Z)-2-(2-cyanopyrimidin-5-yl)-2-fluorovinyl)-2-fluorophenyl)-N,N,5-trimethyl-2-thia-4-azabicyclo[4.1.0]hept-3-ene-1-carboxamide], the concentration for half-maximal inhibition (IC50) at BACE1 [1] came out at 0.15 µM; on BACE1 [2] (setting [3]), 0.924 µM; on BACE2 it was 0.3 µM; on Cathepsin D (CatD), 225 µM.
For `COC(=O)[C@]12C[C@H]1[C@@](C)(c1cc(/C=C(\F)c3ccc(Cl)cn3)cnc1F)N=C(N)S2` [Example 176, (1S,5S,6S)-methyl 3-amino-5-(5-((Z)-2-(5-chloropyridin-2-yl)-2-fluorovinyl)-2-fluoropyridin-3-yl)-5-methyl-2-thia-4-azabicyclo[4.1.0]hept-3-ene-1-carboxylate] the same measures were 0.142 µM, 1.76 µM, 0.214 µM and over 400 µM.
As for `COC(=O)[C@]12C[C@H]1[C@@](C)(c1cc(/C=C(/F)c3ccc(Cl)cn3)cnc1F)N=C(N)S2` [Example 177, (1S,5S,6S)-methyl 3-amino-5-(5-((E)-2-(5-chloropyridin-2-yl)-2-fluorovinyl)-2-fluoropyridin-3-yl)-5-methyl-2-thia-4-azabicyclo[4.1.0]hept-3-ene-1-carboxylate], the IC50 at BACE1 [1] came out at 0.291 µM; at BACE1 [2] (setting [3]), 5.44 µM; on BACE2, 2.9 µM; on Cathepsin D (CatD) it was 527 µM.
For the compound `C[C@]1(c2cc(/C=C(\F)c3ccc(C#N)cn3)cnc2F)N=C(N)S[C@@]2(C(=O)N3CC[C@@H](F)C3)C[C@H]21` [Example 181, 6-((Z)-2-(5-((1S,5S,6S)-3-amino-1-((R)-3-fluoropyrrolidine-1-carbonyl)-5-methyl-2-thia-4-azabicyclo[4.1.0]hept-3-en-5-yl)-6-fluoropyridin-3-yl)-1-fluorovinyl)nicotinonitrile], the IC50 on BACE1 [1] was 0.0021 µM; at BACE1 [2] (setting [3]) it was 0.0073 µM; on BACE2, 0.033 µM; at Cathepsin D (CatD), 653 µM.
On to `C[C@]1(c2cc(/C=C(\F)c3ccc(C#N)cn3)cnc2F)N=C(N)S[C@@]2(C(=O)N3CC[C@H](F)C3)C[C@H]21` [Example 182, 6-((Z)-2-(5-((1S,5S,6S)-3-amino-1-((S)-3-fluoropyrrolidine-1-carbonyl)-5-methyl-2-thia-4-azabicyclo[4.1.0]hept-3-en-5-yl)-6-fluoropyridin-3-yl)-1-fluorovinyl)nicotinonitrile], for which the IC50 on BACE1 [1] came to 0.0024 µM; on BACE1 [2] (setting [3]) it was 0.007 µM; on BACE2 it was 0.045 µM; at Cathepsin D (CatD), 776 µM.
Consider `CN(C)C(=O)[C@]12C[C@H]1[C@@](C)(c1cc(/C(F)=C/c3ccc(Cl)cn3)ccc1F)N=C(N)S2` [Example 185, (1S,5S,6S)-3-amino-5-(5-((Z)-2-(5-chloropyridin-2-yl)-1-fluorovinyl)-2-fluorophenyl)-N,N,5-trimethyl-2-thia-4-azabicyclo[4.1.0]hept-3-ene-1-carboxamide], for which the IC50 on BACE1 [1] is 0.132 µM; on BACE1 [2], 0.695 µM; at BACE2 it was 0.0764 µM; at Cathepsin D (CatD), 172 µM.
In the case of `CN(C)C(=O)[C@]12C[C@H]1[C@@](C)(c1cc(/C(F)=C/c3ccc(C#N)cc3)ccc1F)N=C(N)S2` [Example 186, (1S,5S,6S)-3-amino-5-(5-((Z)-2-(4-cyanophenyl)-1-fluorovinyl)-2-fluorophenyl)-N,N,5-trimethyl-2-thia-4-azabicyclo[4.1.0]hept-3-ene-1-carboxamide], the concentration for half-maximal inhibition (IC50) on BACE1 [1] amounted to 0.128 µM; on BACE1 [2] (setting [3]) it was 0.575 µM; at BACE2, 0.302 µM; on Cathepsin D (CatD), 48.7 µM.
For the compound `C[C@]1(c2cc(/C=C(\F)c3cnc(C#N)cn3)ccc2F)N=C(N)S[C@@]2(C(=O)N3CCCCC3)C[C@H]21` [Example 201, 5-((Z)-2-(3-((1S,5S,6S)-3-amino-5-methyl-1-(piperidine-1-carbonyl)-2-thia-4-azabicyclo[4.1.0]hept-3-en-5-yl)-4-fluorophenyl)-1-fluorovinyl)pyrazine-2-carbonitrile], the IC50 at BACE1 [1] worked out at 0.001 µM; on BACE1 [2] (setting [3]), 0.009 µM; on BACE2, 0.074 µM; at Cathepsin D (CatD), 16.7 µM.
On to `C#Cc1cnc(/C(F)=C/c2ccc(F)c([C@@]3(C)N=C(N)S[C@@]4(C(=O)N(C)C)C[C@H]43)c2)cn1` [Example 205, (1S,5S,6S)-3-amino-5-(5-((Z)-2-(5-ethynylpyrazin-2-yl)-2-fluorovinyl)-2-fluorophenyl)-N,N,5-trimethyl-2-thia-4-azabicyclo[4.1.0]hept-3-ene-1-carboxamide], for which the IC50 on BACE1 [1] amounted to 0.002 µM; against BACE1 [2] it was 0.569 µM; on BACE2, 0.01 µM; on Cathepsin D (CatD), 113 µM.
Take `CN(C)C(=O)[C@]12C[C@H]1[C@@](C)(c1cc(/C=C(\F)I)ccc1F)N=C(N)S2` [Example 206, (1S,5S,6S)-3-amino-5-(2-fluoro-5-((E)-2-fluoro-2-iodovinyl)phenyl)-N,N,5-trimethyl-2-thia-4-azabicyclo[4.1.0]hept-3-ene-1-carboxamide]: the IC50 on BACE1 [1] was 0.01 µM; on BACE1 [2] (setting [3]), 0.093 µM; at BACE2, 0.008 µM; on Cathepsin D (CatD), 12.2 µM.
The matching figures for `CN(C)C(=O)[C@]12C[C@H]1[C@@](C)(c1cc(/C=C(\F)C#Cc3ccccc3)ccc1F)N=C(N)S2` [Example 207, (1S,5S,6S)-3-amino-5-(2-fluoro-5-((Z)-2-fluoro-4-phenylbut-1-en-3-yn-1-yl)phenyl)-N,N,5-trimethyl-2-thia-4-azabicyclo[4.1.0]hept-3-ene-1-carboxamide]: 0.005 µM, 0.335 µM, 0.018 µM and 14.6 µM.
For `CC#C/C(F)=C/c1ccc(F)c([C@@]2(C)N=C(N)S[C@@]3(C(=O)N(C)C)C[C@H]32)c1` [Example 209, (1S,5S,6S)-3-amino-5-(2-fluoro-5-((Z)-2-fluoropent-1-en-3-yn-1-yl)phenyl)-N,N,5-trimethyl-2-thia-4-azabicyclo[4.1.0]hept-3-ene-1-carboxamide] the same measures were 0.094 µM, 0.324 µM, 0.01 µM and 56 µM.
On to `COCCOc1cnc(/C(F)=C/c2ccc(F)c([C@@]3(C)N=C(N)S[C@@]4(C(=O)N(C)C)C[C@H]43)c2)cn1` [Example 210, (1S,5S,6S)-3-amino-5-(2-fluoro-5-((Z)-2-fluoro-2-(5-(2-methoxyethoxy)pyrazin-2-yl)vinyl)phenyl)-N,N,5-trimethyl-2-thia-4-azabicyclo[4.1.0]hept-3-ene-1-carboxamide], for which the IC50 on BACE1 [1] came out at 0.011 µM; against BACE1 [2] it was 0.007 µM; on BACE2, 0.072 µM; on Cathepsin D (CatD), 159 µM.
On to `CN(C)C(=O)[C@]12C[C@H]1[C@@](C)(c1cc(/C=C(\F)c3cnc(OCC4CC4)cn3)ccc1F)N=C(N)S2` [Example 211, (1S,5S,6S)-3-amino-5-(5-((Z)-2-(5-(cyclopropylmethoxy)pyrazin-2-yl)-2-fluorovinyl)-2-fluorophenyl)-N,N,5-trimethyl-2-thia-4-azabicyclo[4.1.0]hept-3-ene-1-carboxamide], for which the IC50 came to 0.022 µM on BACE1 [1], 0.247 µM on BACE1 [2] (setting [3]), 0.044 µM at BACE2 and 67.8 µM on Cathepsin D (CatD).
The matching figures for `CN(C)C(=O)[C@]12C[C@H]1[C@@](C)(c1cc(/C=C(\F)c3cnc(OCC4COC4)cn3)ccc1F)N=C(N)S2` [Example 212, (1S,5S,6S)-3-amino-5-(2-fluoro-5-((Z)-2-fluoro-2-(5-(oxetan-3-ylmethoxy)pyrazin-2-yl)vinyl)phenyl)-N,N,5-trimethyl-2-thia-4-azabicyclo[4.1.0]hept-3-ene-1-carboxamide]: 0.076 µM, 0.065 µM, 0.077 µM and 202 µM.
The matching figures for `CN(C)C(=O)[C@]12C[C@H]1[C@@](C)(c1cc(/C=C(\F)c3cnc(OCC(F)F)cn3)ccc1F)N=C(N)S2` [Example 213, (1S,5S,6S)-3-amino-5-(5-((Z)-2-(5-(2,2-difluoroethoxy)pyrazin-2-yl)-2-fluorovinyl)-2-fluorophenyl)-N,N,5-trimethyl-2-thia-4-azabicyclo[4.1.0]hept-3-ene-1-carboxamide]: 0.021 µM, 0.039 µM, 0.065 µM and 103 µM.
For `COC[C@H](C)Oc1cnc(/C(F)=C/c2ccc(F)c([C@@]3(C)N=C(N)S[C@@]4(C(=O)N(C)C)C[C@H]43)c2)cn1` [Example 214, (1S,5S,6S)-3-amino-5-(2-fluoro-5-((Z)-2-fluoro-2-(5-(((S)-1-methoxypropan-2-yl)oxy)pyrazin-2-yl)vinyl)phenyl)-N,N,5-trimethyl-2-thia-4-azabicyclo[4.1.0]hept-3-ene-1-carboxamide] the same measures were 0.014 µM, 0.024 µM, 0.072 µM and 134 µM.
With `CN(C)C(=O)[C@]12C[C@H]1[C@@](C)(c1cc(/C=C(\F)c3cnc(OCC4CC4(F)F)cn3)ccc1F)N=C(N)S2` (stereo partly drawn) [Example 215, (1S,5S,6S)-3-amino-5-(5-((Z)-2-(5-((2,2-difluorocyclopropyl)methoxy)pyrazin-2-yl)-2-fluorovinyl)-2-fluorophenyl)-N,N,5-trimethyl-2-thia-4-azabicyclo[4.1.0]hept-3-ene-1-carboxamide], the IC50 is 0.037 µM on BACE1 [1], 0.262 µM on BACE1 [2] (setting [3]), 0.051 µM on BACE2 and 121 µM on Cathepsin D (CatD).

(Values after patent US10246429B2, “Vinyl fluoride cyclopropyl fused thiazin-2-amine compounds as beta-secretase inhibitors and methods of use” (AMGEN INC., priority 2015, dated 2019).)
